Read-outs that look alike come from different tables or passages of the source.
Tests used:
TNFα = test: Cot Monocyte TNFα Cell Based Assay
Human Cot = Human Cot (Homo sapiens (Human), UniProt P41279); test: High Throughput Cot Biochemical Assay
Method: Human Cot enzyme activity was measured using KinEASE (Cisbio), a time-resolved fluorescence resonance energy transfer (TR-FRET) immunoassay. In this assay, Cot-catalyzes the phosporylation of a XL665-labeled peptide substrate. Europium conjugated phospho-tyrosine specific antibody binds the resulting phosphorylated peptide. Formation of phosphorylated peptide is quantified by TR-FRET with Europium as the donor and XL665 the acceptor in a 2-step endpoint assay. […] In brief, test compounds serially diluted in DMSO were delivered into Proxy white, low volume, 384 well plates using the Echo 550 acoustic liquid dispenser (Labcyte®). Cot enzyme and substrates were dispensed into assay plates using a Multi-Flo (Bio-Tek Instruments). The standard 5 μL reaction mixture contained 400 μM ATP, 1 μM STK3 peptide, 5 nM of Cot in reaction buffer (10 mM MOPS, pH 7.0, 0.02% NaN3, 0.5 mg/mL BSA, 10 mM MgOAc, 1 mM DTT, 0.025% NP-40, 1.5% glycerol) and 0.1% DMSO.

[1] = Homo sapiens, Monocyte, read-out: EC50 TNF, LPS-stimulated human monocytes, TNFα TR-FRET
[2] = IC50 HTRF, Cot HTRF (TR-FRET KinEASE) biochemical assay, 400 μM ATP
[3] = read-out: EC50 TNF, LPS-stimulated human monocytes, TNFα TR-FRET
[4] = read-out: IC50 HTRF, Cot HTRF (TR-FRET KinEASE) biochemical assay, 400 μM ATP
[5] = read-out: EC50 TNF, LPS-stimulated human monocytes, TNFα
[6] = read-out: IC50 HTRF, Cot HTRF (TR-FRET) biochemical assay
[7] = Homo sapiens, Monocyte, read-out: EC50 TNF, LPS-stimulated human monocytes, TNFα
[8] = IC50 HTRF, Cot HTRF (TR-FRET) biochemical assay

Sequence of Human Cot (P41279 30-397): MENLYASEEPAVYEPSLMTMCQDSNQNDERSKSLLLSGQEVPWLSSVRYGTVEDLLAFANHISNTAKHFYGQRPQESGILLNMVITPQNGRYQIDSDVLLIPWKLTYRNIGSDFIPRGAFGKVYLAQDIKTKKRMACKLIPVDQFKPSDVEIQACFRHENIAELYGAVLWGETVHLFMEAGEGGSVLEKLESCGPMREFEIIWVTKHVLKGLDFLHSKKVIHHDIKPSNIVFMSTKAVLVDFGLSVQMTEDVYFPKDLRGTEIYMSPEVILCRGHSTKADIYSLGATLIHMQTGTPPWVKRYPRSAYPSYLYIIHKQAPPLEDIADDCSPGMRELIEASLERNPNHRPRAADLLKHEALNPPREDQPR

SMILES | EC50 (TNFα; [1]) | IC50 (Human Cot; [2]) | EC50 (TNFα; [7]) | IC50 (Human Cot; [8]) | other results
COc1c(C(Nc2cc(Cl)c3ncc(C#N)c(NCC(C)(C)C)c3c2)c2ccc(F)nc2C)nnn1C (centres unmarked) [Example 971, 8-chloro-6-(((6-fluoro-2-methylpyridin-3-yl)(5-methoxy-1-methyl-1H-1,2,3-triazol-4-yl)methyl)amino)-4-(neopentylamino)quinoline-3-carbonitrile] | 301 nM | 11 nM | – | – | –
COc1nccc2c([C@H](Nc3cc(Cl)c4ncc(C#N)c(NCC(C)(C)C)c4c3)c3cn(C4(C(F)F)CC4)nn3)cccc12 [Example 914, (S)-8-chloro-6-(((1-(1-(difluoromethyl)cyclo-propyl)-1H-1,2,3-triazol-4-yl)(1-methoxylsoquinolin-5-yl)methyl)amino)-4-(neopentylamino)quinoline-3-carbonitrile] | – | – | – | – | EC50 (TNFα; [3]): 116 nM; IC50 (Human Cot; [4]): 9 nM
CC(C)n1cc([C@@H](Nc2cc(Cl)c3ncc(C#N)c(N[C@@H](CCO)c4ccccc4)c3c2)c2cccnc2)nn1 [Example 184, 8-chloro-4-(((S)-3-hydroxy-1-phenylpropyl)amino)-6-(((S)-(1-isopropyl-1H-1,2,3-triazol-4-yl)(pyridin-3-l)methyl)amino)-quinoline-3-carbonitrile] | – | – | – | – | EC50 (TNFα; [5]): 387 nM; IC50 (Human Cot; [6]): 8 nM
Cc1nc(F)ccc1[C@H](Nc1cc(C#N)c2ncc(C#N)c(NCC(C)(C)C(F)(F)F)c2c1)c1cn(C2(C3CC3)CC2)nn1 [Example 867, (S)-6-(((4-(1-(1,1-bi(cyclopropan)]-1-yl)-1H-1,2,3-triazol-4-yl)(6-fluoro-2-methylpyridin-3-yl)methyl)amino)-4-((3,3,3-trifluoro-2,2-dimethylpropyl)amino)quinoline-3,8-dicarbonitrile] | – | – | – | – | EC50 (TNFα; [3]): 27 nM; IC50 (Human Cot; [4]): 3 nM
Cc1nc(Cl)ccc1[C@H](Nc1cc(Cl)c2ncc(C#N)c(Nc3ccc(F)c(Cl)c3)c2c1)c1cn(C2CCN(C(C)(C)C)CC2)nn1 [Example 318] | – | – | – | – | EC50 (TNFα; [5]): 271 nM; IC50 (Human Cot; [6]): 8 nM
Cc1nc(Cl)ccc1[C@H](Nc1cc(Cl)c2ncc(C#N)c(Nc3ccc(F)c(Cl)c3)c2c1)c1cn(CCO)nn1 [Example 328, (S)-8-chloro-6-(((6-chloro-2-methylpyridin-3-yl)(1-(2-hydroxyethyl)-1H-1,2,3-triazol-4-yl)methyl)amino)-4-((3-chloro-4-fluorophenyl)amino)-quinoline-3-carbonitrile] | – | – | 272 nM | 4 nM | –
CCC(F)(F)Cn1cc([C@@H](Nc2cc(C#N)c3ncc(C#N)c(NCC(C)(C)C)c3c2)c2ccc(F)nc2C)nn1 [Example 837, (S)-6-(((1-(2,2-difluorobutyl)-1H-1,2,3-triazol-4-yl)(6-fluoro-2-methylpyridin-3-yl)methyl)amino)-4-(neopentylamino)quinoline-3,8-dicarbonitrile] | 121 nM | 7 nM | – | – | –
Cn1ccc2c([C@H](Nc3cc(C#N)c4ncc(C#N)c(NCC(C)(C)C)c4c3)c3cn(C4(C(F)F)CC4)nn3)cccc21 [Example 847, (S)-6-(((1-(1-(difluoromethyl)-cyclopropyl)-1H-1,2,3-triazol-4-yl)(1-methyl-1H-indol-4-yl)methyl)amino)-4-(neopentylamino)quinoline-3,8-dicarbonitrile] | 296 nM | 31 nM | – | – | –
Cc1ncsc1[C@H](Nc1cc(Cl)c2ncc(C#N)c(Nc3cccc(Cl)c3F)c2c1)c1cn(C2CCN(C(C)(C)C)CC2)nn1 [Example 253, (R)-6-(((1-(1-(tert-butyl)piperidin-4-yl)-1H-1,2,3-triazol-4-yl)(4-methylthiazol-5-yl)methyl)amino)-8-chloro-4-((3-chloro-2-fluorophenyl)amino)quinoline-3-carbonitrile] | – | – | 66 nM | 4 nM | –
COc1cc(N[C@H](c2cn(C3(C(F)(F)F)CC3)nn2)c2ccc(F)nc2C)cc2c(NCC(C)(C)C)c(C#N)cnc12 [Example 595, (S)-6-(((6-fluoro-2-methylpyridin-3-yl)(1-(1-(trifluoromethyl)cyclopropyl)-1H-1,2,3-triazol-4-yl)methyl)amino)-8-methoxy-4-(neopentylamino)quinoline-3-carbonitrile] | – | – | 1000 nM | 209 nM | –
